Entries after “also recorded” stand apart in the source; their conditions may differ.
Tested on: T47D cells
Experiment: Whole-cell cAMP luminescence polarization assay of modulators (FIG. 13)
Type: cell-based
Method: • (a) Preparation of 1:75 cAMP antibody working stock. Dilute the 300× cAMP antibody stock 1:75 in cAMP assay buffer (0.05 M HEPES, pH 7.5, 150 mM NaCl, 0.1% bovine gamma globulin) (e.g., by adding 14 μL of the 300× cAMP antibody stock to 1036 μL of cAMP assay buffer). 10 μL of this working stock solution will be added to the assay plate, as indicated in the plate layout in FIG. 9. • (b) Preparation of cAMP tracer working stock. Dilute the 500× cAMP tracer stock 1:125 in cAMP assay buffer (e.g., by adding 10 μL of the 500× cAMP tracer stock to 1240 μL of cAMP assay buffer). 10 μL of this working stock solution will be added to the assay plate, as indicated in the plate layout in FIG. 9. • (c) Preparation of cAMP calibration curve. Dilute the cAMP calibrator 1:25 in cAMP assay buffer (e.g., by adding 10 μL cAMP calibrator to 240 μL cAMP assay buffer) to give 10 μM cAMP calibrator or 400 pmol in final assay. Prepare seven 1:3 serial dilutions to give 3.33, 1.11, 0.37, 0.12, 0.041, 0.014, and 0.005 μM cAMP (133 to 0.125 pmol in final assay). • (d) Preparation of samples. […] A plastic plate cover may be used to prevent possible evaporation, but care should be taken with plastic plate sealers, which may introduce undesirable background fluorescence. • (e) Read plate using a light detection device capable of generating and detecting polarized light. […]

SMILES: CC(C)NCC(O)c1ccc(O)c(O)c1 (centres unmarked) [isoproterenol]
- cAMP production (cAMP levels) (cultured adherent T47D cells, whole cell preparation, forskolin protocol 20 μM final, 15 minutes at 37° C.): stimulates cAMP production; also recorded: stimulated

SMILES: CC(C)NCC(O)COc1cccc2ccccc12 (centres unmarked) [propranolol]
- effect on isoproterenol-stimulated cAMP production (cultured T47D cells, endogenous beta receptors, antagonist added to isoproterenol stimulation): reversed; also recorded: inhibited

— patent publication US8568973B2, “Cell-signaling assays” (Molecular Devices, LLC, priority 1999, dated 2013)
